According to patent US8048872B2, “Treatment of hyperproliferative diseases with vinca alkaloid N-oxide and analogs” (Stat of Oregon Acting by and Through The Oregon State Board …, priority 2006, dated 2011):
Several values for one entry are separate records, joined by “and”; a condition that tells them apart may be missing. Equal entries are not always repeated. Where two headings read alike, the source gives them in different places.

Experiments:
[1] = system: human H460 lung adenocarcinoma
Description: (§4) Tumor cell line were cultured in DMEM-10% FBS under standard conditions. One-hundred mm plastic culture dishes were seeded with 1×10^6 tumor cells and treated with vinca alkaloids or N-oxide analogs at a dose range of 0.01-100 nM. Cells were exposed with gentle rocking to a constant level of low oxygen (0.2% O2-5% CO2-balance N2) in a hypoxia apparatus (INVIVO2400 Hypoxia Workstation, Ruskin Technology) for 14 hr at 37° C. Identically treated cells were incubated under normoxia (air-5% CO2) at 37° C. Cells were harvested and replated in fresh medium at a density of 1×10^3 cells/well in 48-well plastic culture plates to assess viability 24-72 hr later. Briefly, Alamar Blue was added to replicate wells on Day 0 and Day 3, and cells were incubated for a further 3-6 hr at 37° C. before fluorescence readings using a plate reader (530-560 nm excitation, 590 emission). The percent inhibition of proliferation was calculated and plotted against control-treated cells at each drug concentration. […] The Hypoxia Cytotoxicity Ratio (HCR) was determined as the ratio of the IC50 of the compound under normoxic conditions vs. hypoxic conditions.

[2] = in vivo; conditions: female, nude, mouse, iv
Description: (§1) In one example, female nude mice (n=10) were inoculated subcutaneously with 15×10^6 human K562 myelogenous leukemia cells in a 1:1 ratio with matrigel on the right flank. Tumor volumes were monitored and calculated using the formula: Tumor volume=(a^2×b/2) where ‘a’ is the smallest diameter and ‘b’ is the largest diameter. Once the established tumors reached approximately 75-150 mm^3 (individual tumor volumes may range from […]) the mice were assigned to the various vehicle control and treatment groups such that the mean tumor volumes in the treated groups were within 10% of the mean tumor weight in the vehicle control group. On the same day (day 1) and days 4, 7, 10, and 13, vinca-alkaloid N-oxide analogs (VCR-NO, VBL-NO) were administered intravenously according to a q3d×5 schedule. Mice were also treated with vehicle (negative control) and the standard agents, vinblastine and vincristine (positive controls). Tumor volumes were recorded three times a week starting when tumors were palpable and including the day of study termination. Animals were monitored for signs of toxicity and body weights were recorded twice a week starting on the first day of treatment and including the day of study termination. […] The mean day of sacrifice were calculated to determine the tumor growth delay and tumor growth inhibition effects of each test article as compared to vehicle control. […] Statistical significance between the treated vs. control groups was evaluated by logrank analysis.

[3] = system: murine L1210 leukemic tumor cells; test: in vivo; conditions: L1210; 1 mg/kg i.v. q3d×5
Description: (§2) For example, B6D2F1 mice (n=8/group) were inoculated subcutaneously (sc) in the right flank with 1×10^6 murine L1210 leukemic tumor cells. […] Test agents were administered on multiple treatment regimen (q3d×5) to yield optimal dose schedule benefit. Vehicle control treated mice served as the negative control group; mice treated with the bioreduced parent compounds, vincristine and vinblastine, dosed at their […] (MTDs), served as the positive control groups. Tumors were measured with calipers twice weekly and tumor volume calculated using the formula: Tumor Volume (mm^3)=((width)^2×length)/2. Animals were monitored for signs of toxicity and weighed daily for the first 5 days of the study and then twice-weekly until the study end. As pre-defined in the protocol, each animal was actively euthanized when its tumor reached the pre-determined endpoint size of 2000 mm^3 or at the conclusion of the study (day 37) whichever came first. The time to endpoint (TTE) was calculated for each mouse as TTE (days)=(log10(endpoint volume mm^3)−b)/m where b is the intercept and m is the slope of the line obtained by linear regression of a log-transformed tumor growth data set. Treatment outcome was determined from tumor growth delay (TGD) which is defined as the increase in median TTE in a treatment (T) group as compared to the control (C) group (TGD=T−C) expressed in days or as a percentage of the median TTE of the control group % TGD=((T−C)/C)×100. […] Statistical significance between the treated vs. control groups was evaluated by logrank analysis.

[4] = in vivo; conditions: B6D2F1, mouse, in vivo, iv
Description: as §2

[5] = system: human H460 lung adenocarcinoma; test: cells; conditions: NCI-H460, 14 h
Description: as §4

[6] = in vivo; conditions: female, nude, mouse, iv; remark: listed apart in the source
[7] = in vivo; conditions: B6D2F1, mouse, in vivo, iv; remark: listed apart in the source
Description: as §2
(§3) This model was developed by subcutaneously inoculating B6D2F1 mice (n=8/group) with 1×10^6 murine P388 leukemic tumor cells using similar methodology to that described above for L1210. […] Agents were administered on multiple treatment regimen (q3d×5) to yield optimal dose schedule benefit. Efficacy of treatment with the N-oxide analogs was determined by Tumor Growth Delay (TGD) and Kaplan-Meier survival analysis as described for L1210, the exception being that the conclusion of the study was day 45 or the predefined endpoint size of 2000 mm^3 whichever came first. Vehicle control treated mice served as the negative control group; mice treated with the standard agents, vincristine and vinblastine, dosed at their MTDs, served as the positive control groups.

[8] = system: murine P388 leukemic tumor cells; test: in vivo
Description: as §2, §3

[9] = cited from earlier work
[10] = system: human HT29 colorectal adenocarcinoma; set-up: species or system mouse; conditions: in vivo
[11] = system: metastatic cancer of the colon or rectum; conditions: 350 mg/m^2 30-minute iv infusion once every 3 weeks; 132 previously treated patients; cited from earlier work
[12] = system: human HL60 promyelocytic leukemia cells; conditions: in vivo
[13] = system: Human H460 lung adenocarcinoma tumor cells
Description: Cells were exposed with gentle rocking to a constant level of low oxygen (0.2% O2-5% CO2-balance N2) in a hypoxia apparatus (INVIVO2400 Hypoxia Workstation, Ruskin Technology) for 12 hr at 37° C. Identically treated cells were incubated under normoxia (air-5% CO2) at 37° C. Cells were harvested and lysed in DNA lysis buffer (20 mM Tris-HCL, pH 8.0, 1 mM EDTA, 0.1% Triton X-100) and stored at −80° C. for analysis of DNA content and LC/MS/MS analysis. […] Lysates were mixed with 150 ml of methanol containing 0.1% acetic acid and vinca alkaloid internal standard, and vortexed for 10 min, and centrifuged for 5 min at 18000 g. Clarified supernatants were transferred to HPLC vials fitted with glass inserts and analyzed by LC-MS/MS. Chromatography was performed on an Acquity HPLC system fitted with an Acquity BEH C18 column, and used 0.1% (v:v) formic acid in water for mobile phase A, and 0.1% (v:v) formic acid in acetonitrile for mobile phase B. Mass spectral analysis was performed using a Micromass Quattro Micro triple quadupole mass spectrometer.
The amounts of each compound were calculated from standard curves.

[14] = system: multiple human solid tumor cell lines; test: Hypoxia-induced cytotoxicity across cell lines (HCR range); type: cell-based
Description: as §4

[15] = system: human K562 myelogenous leukemia cells; test: in vivo
Description: as §1

[16] = system: A549 non-small cell lung carcinoma
Description: as §4

[17] = system: FaDU head and neck tumor cell lines
Description: as §4

[18] = system: human H460 lung adenocarcinoma cells
Description: Human H460 lung adenocarcinoma tumor cells were cultured in DMEM-10% FBS under standard conditions. One-hundred mm plastic culture dishes were seeded with 1×10^6 tumor cells/dish and treated with vinca alkaloids or N-oxide analogs at a 0.01-100 nM dose range. Cells were exposed with gentle rocking to a constant level of low oxygen (0.2, 1% or 5% O2-5% CO2-balance N2) in a hypoxia apparatus (INVIVO2400 Hypoxia Workstation, Ruskin Technology) for 14 hr at 37° C. Identically treated cells were incubated under normoxia (air-5% CO2) at 37° C. Cells were harvested and replated in fresh medium at a density of 1×10^3 cells/well in 48-well plastic culture plates to assess viability 24-72 hr later. Briefly, Alamar Blue was added to replicate wells on Day 0 and Day 3, and cells were incubated for a further 3-6 hr at 37° C. before fluorescence readings using a plate reader (530-560 nm excitation, 590 emission). The percent inhibition of proliferation was calculated and plotted against control-treated cells at each drug concentration. […] The Hypoxia Cytotoxicity Ratio (HCR) was defined as ((IC50 in Hypoxia)/(IC50 in Normoxia)).

[19] = mouse, in vivo
Description: Body weights were monitored twice weekly and up to 2 weeks following treatment. Mice were also injected ip with 4 or 6 mg/kg vinblastine using the same q3d×5 schedule as a positive control.

[20] = system: SiHa
Description: as §4

[21] = system: H460 lung carcinoma tumor cells; type: cell-based, human
[22] = Grade III-IV, Naïve pts (n = 48)
[23] = Grade III-IV, Pre-treated patients (n = 165)

Which “Hypoxia Cytotoxicity Ratio (HCR)” value [1] does the source give for `CC[C@]1(O)C[C@H]2CN(CCc3c([nH]c4ccccc34)[C@@](C(=O)OC)(c3cc4c(cc3OC)N(C=O)[C@H]3[C@@](O)(C(=O)OC)[C@H](OC(C)=O)[C@]5(CC)C=CCN6CC[C@]43[C@@H]65)C2)C1` [Vincristine, vincristine] here?
The value was 1.1.

What about the body weight loss (0.6-1 mg/kg iv q3d×5, during the course of treatment) of the same molecule?
The body weight loss was “significant body weight loss”.

And the MTD [2]?
The MTD was 1.5 mg/kg.

What about the “Median Survival” value [3] of the same molecule?
The value was 19.6 days.

And the “Tumor Growth Delay” value [3]?
The value was 8%.

What about the MTD [4] of the same molecule?
The MTD was 1 mg/kg.

What about the IC50 ([5]; read-out: IC50 Air) of the same molecule?
Its IC50 is 17 nM.

And the IC50 ([5]; read-out: IC50 Hypoxia)?
The IC50 was 15 nM.

What about the MTD [6] of the same molecule?
The MTD was 1.5 mg/kg.

What about the MTD [7] of the same molecule?
Its MTD is 1 mg/kg.

And the “Median Survival” value ([8]; P388, 1 mg/kg i.v. q3d×5)?
Its value is 20.8 days.

What about the “Tumor Growth Delay” value ([8]; P388, 1 mg/kg i.v. q3d×5) of the same molecule?
Its value is 54%.

Which Alopecia [9, 22] does the source give for `CCc1c2c(nc3ccc(OC(=O)N4CCC(N5CCCCC5)CC4)cc13)-c1cc3c(c(=O)n1C2)COC(=O)[C@]3(O)CC` [CPT-11, 7-ethyl-10[4-(1-piperidino)-1-piperidino]carbonyloxycamptothecin, reference compound] here?
The Alopecia was “Alopecia 54%”.

What about the “Delayed Diarrhea” value [9, 22] of the same molecule?
Its value is “Delayed Diarrhea 35%”.

What about the Nausea/Vomiting [9, 22] of the same molecule?
Its Nausea/Vomiting is “Nausea/Vomiting 13%”.

What about the Thrombocytopenia [9, 22] of the same molecule?
The Thrombocytopenia was “Thrombocytopenia 2%”.

And the “Leukopenia/Neutropenia Toxicity” value ([9]; Grade III-IV, Naïve pts)?
The value was 48%.

And the Alopecia [9, 23]?
The Alopecia was “Alopecia 53%”.

And the “Delayed Diarrhea” value [9, 23]?
The value was “Delayed Diarrhea 39%”.

What about the Nausea/Vomiting [9, 23] of the same molecule?
Its Nausea/Vomiting is “Nausea/Vomiting 22%”.

What about the Thrombocytopenia [9, 23] of the same molecule?
The Thrombocytopenia was “Thrombocytopenia 3%”.

What about the “Leukopenia/Neutropenia Toxicity” value ([9]; Grade III-IV, Pretreated pts) of the same molecule?
Its value is 47%.

And the “Documented Infection” value ([9]; Grade III-IV)?
The value was 5%.

What about the “Neutropenic Fever” value ([9]; Grade III-IV) of the same molecule?
Its value is “Neutropenic Fever 14%”.

And the “Anemia Grade III-IV” value ([9]; Naïve pts (n = 48))?
Its value is 8%.

What about the “Anemia Grade III-IV” value ([9]; Pre-treated patients (n = 165)) of the same molecule?
Its value is 10%.

What about the “Tumor Growth Delay” value ([10]; ip, 100 mg/kg) of the same molecule?
Its value is 60%.

What about the intent-to-treat response rate [11] of the same molecule?
The intent-to-treat response rate was 12.1%.

What does the source list for `CC[C@]1(O)C[C@@H]2C[C@](C(=O)OC)(c3cc4c(cc3OC)N(C=O)[C@H]3[C@@](O)(C(=O)OC)[C@@H](OC(C)=O)[C@]5(CC)C=CCN6CC[C@]43[C@@H]65)c3[nH]c4ccccc4c3CC[N@+]([O-])(C2)C1` [Vincristine N-oxide, Vincristine N′b-Oxide]?
Tumor Growth Inhibition [12]: 94% and 96%; bioreduction to parent compound [13]: bioreduced to vincristine under hypoxia exposure; HCR values [14]: 5-25; body weight loss / gross symptoms of toxicity (mouse, in vivo): no evidence of significant body weight loss or gross symptoms of toxicity; Tumor Growth Inhibition [15]: 69% and 84% and 60%; Tumor Growth Delay [10]: 42%; Hypoxia Cytotoxicity Ratio (HCR) [16]: 11.2; Tumor Growth Delay ([8]; mouse, in vivo): 76% and 54%; Hypoxia Cytotoxicity Ratio (HCR) [17]: 6

Which results are given for `CC[C@]1(O)C[C@H]2C[C@](C(=O)OC)(c3cc4c(cc3OC)N(C)[C@H]3[C@@](O)(C(=O)OC)[C@H](OC(C)=O)[C@]5(CC)C=CCN6CC[C@]43[C@@H]65)c3[nH]c4ccccc4c3CC[N@+]([O-])(C2)C1` [Vinblastine N-oxide, Vinblastine N′b-Oxide]?
cytotoxicity vs oxygen concentration [18]: Increased cytotoxicity; Tumor Growth Inhibition [12]: 91% and 94%; bioreduction to parent compound [13]: bioreduced to vinblastine under hypoxia exposure; HCR values [14]: 3-21; body weight loss / gross symptoms of toxicity [19]: no evidence of significant body weight loss or gross symptoms of toxicity; Tumor Growth Inhibition [15]: 77% and 89%; Hypoxia Cytotoxicity Ratio (HCR) [20]: 4.3; Hypoxia Cytotoxicity Ratio [21]: ~20; IC50 inhibitory activity after activation under hypoxia [21]: low nanomolar; Hypoxia Cytotoxicity Ratio (HCR) [17]: 7.5
